Tests used:
Format in all cases: physicochemical
[1] = Hygroscopicity study by dynamic vapor sorption (DVS) analysis; conditions: for weight gain %: 25° C., DVS sorption
Procedure: Hygroscopicity study is performed using Surface Measurement Systems DVS-1. The sample is placed on a microbalance in the instrument. After the sample is dried under 0% humidity environment at 25° C., relative humidity is raised to 95% RH at 5% RH increments, maintaining the sample at each step until equilibration had been attained. After completion of the sorption cycle, the sample is dried to 10% RH using the same procedure (desorption cycle). The weight change during the sorption/desorption cycle is monitored, allowing for the hygroscopic nature of the sample to be determined.
In the hygroscopicity study by dynamic vapor sorption (DVS) analysis, Polymorph Form I absorbs less than 0.2 wt % under 90% relative humidity (RH) at 25° C. On the other hand, the white solid disclosed in the prior art WO2006/090224 absorbs 1.2 wt % and 5.5 wt % of water under 85% RH and 90% RH, respectively.

[2] = Thermal polymorph transformation monitored by variable-temperature PXRD; conditions: heating
Procedure: The PXRD analyses are performed using a Rigaku RINT-TTR X-ray powder diffractometer using Cu-Kα radiation. The samples can also be measured under the high/low temperature condition by using the attachment of the variant-temperature sample holder. The instrument is equipped with a fine focus X-ray tube. The tube voltage and amperage are set to 50 kV and 300 mA respectively. The divergence and scattering slits are set at 0.25° and the receiving slit is set at 0.15 mm. Diffracted radiation is detected by a NaI scintillation detector. A theta-two theta continuous scan at 4°/min (step size 0.02°) from 3 to 40 2-Theta° is used. A silicon standard is analyzed to check the machine alignment. Data are collected and analyzed using-Rigaku X-ray system. Samples are prepared for analysis by placing them in an aluminum sample holder that is horizontally rotated at 60 rpm during data acquisition.
Polymorph Form I begins to transform to Polymorph Form II at around 110° C. […]

[3] = Solid-state stability study (temperature/humidity chamber, Xenon lamp)
Procedure: Solid-state stability study is performed using Nagano Science Constant temperature/humidity control chamber LH-20-11M, LH-21-11M, LTL-200D3CJ-14 or LTX-01. The sample is placed in the chamber and exposed under 25° C./60% RH, 40° C./75% RH and/or irradiated with a Xenon lamp. The crystalline form, thermal behavior, purity and/or weight change of the resultant sample after the exposure or irradiation are evaluated by XRPD, TG/DTA or DSC, HPLC, microbalance analysis, respectively.

[4] = 90% relative humidity (RH) at 25° C.

Row | Compound | weight gain % ([1]; 75% RH) [%] | weight gain % ([1]; 80% RH) [%] | weight gain % ([1]; 85% RH) [%] | weight gain % ([1]; 90% RH) [%] | water absorbed (DVS) [1, 4] | temperature at which transformation to Polymorph Form II begins [2] | stability compared with white solid of WO2006/090224 [3] | water absorbed (DVS) ([1]; 85% RH) [wt %]
1 | O=C(O)C1(CN2CCC(COc3noc4cccc(OCC(F)(F)F)c34)CC2)CCOCC1 [Polymorph Form I, 4-{[4-({[4-(2,2,2-trifluoroethoxy)-1,2-benzisoxazol-3-yl]oxy}methyl)piperidin-1-yl]methyl}-tetrahydro-2H-pyran-4-carboxylic acid] | 0.15 | 0.15 | 0.15 | 0.18 | less than 0.2 wt % | around 110 °C | more stable than white solid | 
2 | O=C(O)C1(CN2CCC(COc3noc4cccc(OCC(F)(F)F)c34)CC2)CCOCC1 [Polymorph Form II, 4-{[4-({[4-(2,2,2-trifluoroethoxy)-1,2-benzisoxazol-3-yl]oxy}methyl)piperidin-1-yl]methyl}-tetrahydro-2H-pyran-4-carboxylic acid] |  |  |  |  |  |  | more stable than white solid | 
3 | O=C(O)C1(CN2CCC(COc3noc4cccc(OCC(F)(F)F)c34)CC2)CCOCC1 [White solid disclosed in the prior art WO2006/090224] [4-{[4-({[4-(2,2,2-Trifluoroethoxy)-1,2-benzisoxazol-3-yl]oxy}methyl)piperidin-1-yl]methyl}-tetrahydro-2H-pyran-4-carboxylic acid] | 0.33 | 0.35 | 1.2 | 5.5 | 5.5 wt % |  |  | 1.2

From patent publication US9187463B2, “Polymorph form of 4-{[4-({[4-(2,2,2-trifluoroethoxy)-1,2-benzisoxazol-3-yl]oxy}methyl)piperidin-1-yl]methyl}-tetrahydro-2H-pyran-4-carboxylic acid” (RAQUALIA PHARMA INC., priority 2011, dated 2015)
